{"source": "patent US8053415B2", "about": "“Compounds having RD targeting motifs” (Washington University in St. Louis, priority 2005, dated 2011)", "key": {"[1]": {"assay": "Absorption and emission spectral properties in 20% aqueous DMSO", "assay_type": "physicochemical", "description": "The spectral properties of cypate and the cypate-peptide conjugates were determined in 20% aqueous DMSO, which solubilizes all the compounds. […] Absorbance measurements were performed with a Beckman Coulter DU 640 spectrophotometer. The fluorescence spectra were recorded on Fluorolog-3 fluorometer (HORIBA Jobin Yvon Inc., Edison, N.J.). To prepare the stock solutions, a high precision analytical balance was used to weigh >2 mg of each compound, which was dissolved in DMSO. The DMSO solutions were then diluted with water to obtain a final solution of 20% aqueous DMSO. An aliquot (known volume) of the solution was transferred to a cuvette with 1 μL precision micropipettes and diluted with 20% aqueous DMSO solvent mixture to give a working solution that absorbs at <1.0 absorbance unit. Aliquots of the working solution were diluted with 20% aqueous DMSO and used to determine the molar absorptivity of each compound. For fluorescence measurements, probe solutions with 0.1 absorbance units were used to minimize inner filter effects.\nPrevious studies have shown that this solvent mixture boosts fluorescence intensity and is well tolerated by rodents. Additionally, the dyes and their peptide conjugates are soluble in this solvent mixture, providing a common medium for spectral measurements.\nAbsorbance spectra were measured on a Beckman Coulter DU 640 UV-Visible spectrophotometer. Fluorescence spectra were recorded on a HORIBA Jobin Yvon Fluorolog-3 fluorometer. Stock solutions (1.0 mM) of the conjugates were prepared by dissolving each sample in 80% aqueous DMSO. UV-Vis and fluorescence measurements were carried out by adding 5.0 μL of the stock solutions via a micropipette into 3 mL of 20% aqueous DMSO in a quartz cuvette."}, "A549 cells [2]": {"system": "A549 cells", "assay": "Cellular internalization and blocking studies by fluorescence microscopy (Example 1)", "settings": "for internalization in A549 cells: 1 μM"}, "A549 tumor [3]": {"system": "A549 tumor", "assay": "In vivo fluorescence optical imaging and ex vivo organ distribution in A549 tumor-bearing nude mice", "settings": "for uptake / retention in A549 tumor: 0.3 μmol per kg via lateral tail vein, fluorescence imaging", "description": "All in vivo studies were performed in compliance with the Washington University in St Louis Animal Study Committee's requirements for the care and use of laboratory animals in research. Nude mice (18-22 g) were anesthetized with xylazine/ketamine cocktail via intraperitoneal injection and placed in a supine position. The mice were injected subcutaneously with A549 cells (1×10^6) in the lower back of the mice. Tumor masses were palpable at 5-7 days post implant, which reached 5 mm in 10-15 days. Prior to injection of the probe, the mice were anesthetized as described above. A 29-gauge needle was used to inject the probes into the mouse via the lateral tail vein. The molecular probe (100 μL) was injected via the lateral tail vein at 0.3 μmol per kg of body weight. […] [SEQ ID NO:1] were constituted in a vial, and doses of 0.3 μmol per kg of body weight were injected into the A549 tumor-bearing mice.\nA non-invasive in vivo continuous wave fluorescence imaging apparatus was used to visualize the distribution and preferential tissue uptake of the cypate-peptide molecular beacons in the nude mice (Achilefu (2004) Technol. Cancer Res. Treat. 3:393-409, incorporated herein by reference). Light from two laser diodes of nominal wavelength 780 nm and nominal power of 50 mW was launched into a fiber optic bundle. Two laser diodes were used to produce as much uniform illumination of the whole animal or organ parts as possible. The nominal 50 mW of incident power was reduced to about 44 mW at the output of the fiber optic bundle. A de-focusing lens in position after the bundle expanded the beam such that nearly the whole animal was illuminated. A Photometrics CCD camera (16 bit, 1024×1024 pixel, back illuminated, thermoelectric Peltier cooled with forced air) was used to capture the emitted photons. An interference filter (830 nm) was mounted in front of the CCD camera input lens such that only emitted fluorescent light from the contrast agent was imaged. Real-time acquisition, display and data processing software (WinView/32) was used to obtain the optical image. The samples were dissolved in 20% aqueous DMSO and animals were injected with doses of 0.3 μmol/kg body weight via the lateral tail vein. Injected volumes were 100 μL for each mouse. Data analysis consisted of subtracting (pixel by pixel) the pre-injection image from the post injection images, and displaying the false color results. Integration of the relative fluorescence intensities of tumor vs. surrounding tissues indicated the extent of selective uptake of the contrast agent. At the completion of the study, the mice were euthanized and some organ parts were excised and rinsed with water. The tissues were placed under the CCD camera and the fluorescence emission from each organ was measured after excitation with the 780 nm laser sources. Tissue parts, instead of whole organs, were used to minimize problems associated with depth-dependent non-linear fluorescence emission. A statistical program in the WinView package was used to estimate the mean fluorescence intensity per organ part.\nIn vivo optical imaging studies using the cypate-peptide optical probes were performed and analyzed as described above in Example 1. […]"}, "A549 cells [4]": {"system": "A549 cells", "assay": "CyQuant cytotoxicity and proliferation assay", "assay_type": "cell-based, human", "settings": "48 hours", "description": "Cells were seeded at 2.5×10^4 cells/well and grown in 96 well plates in the presence of 0−1.5×10^−5 M cypate conjugated peptides for 24 or 48 hours. Cell proliferation was measured using the CyQuant proliferation assay from Molecular Probes (Eugene, Oreg.) per the manufacturer's protocol. Briefly, after incubation the microplate was inverted to remove the media and frozen at −70° C. overnight. The microplate was thawed at room temperature and 200 μL of the CyQuant GR dye/cell-lysis buffer was added to each well. […]\nBecause the Cyquant assay is based on the adherence of a dye to nucleic acids, the assay is a measure of both proliferative and cytotoxic effects."}, "[5]": {"target": "T1, purified human αvβ3 integrin protein (Homo sapiens, UniProt P05106+P06756)", "T1 construct": "purchased Chemicon International, Inc. (Temecula, Calif.)", "assay": "Competitive αvβ3 integrin receptor binding assay with 125I-echistatin tracer (Example 2)", "description": "The binding affinities were measured based on the competitive binding between purified αvβ3 integrin (ABI) and peptide ligands. Echistatin is a polypeptide that binds irreversibly with high affinity and specificity to ABI. ^125I-echistatin was used as a tracer in ABI binding assays.\nReceptor binding assays were performed by using purified human αvβ3 integrin protein from Chemicon International, Inc. (Temecula, Calif.). Assays were carried out using the Millipore Duropore membrane 96-well plates and the Millipore MultiScreen system (Bedford, Mass.). The 96-well membrane plate was blocked with 0.1% Polythylenimine blocking solution overnight at 4° C. ^125I-echistatin (50 nmol/L) was added to the binding buffer (50 mM Tris-HCl, pH 7.4, 100 mM NaCl, 2 mM CaCl2, 1 mM MgCl2, 1 mM MnCl2, 1% BSA) containing integrin protein (50 ng per well in 96-well membrane plate) and ligands in a total volume of 200 μL per well. The concentration range of ligand was between 0.01 μM and 100 μM. The mixtures were incubated for 2 h at room temperature, the ABI was then filtered by centrifugation at 1500 g and washed three times with 0.20 mL of ice-cold binding buffer. The filters containing radioactivity bound ABI were removed using a punch apparatus and counted using a Packard Cobra II Auto-gamma counter (Meriden, Conn.). […] Radiolabeling of ^125I-echistatin (Amersham Biosciences, Piscataway, N.J.) was carried out in a mixture of 0.25% BSA, 5.0% lactose, 0.21% citric acid and aprotinin (0.9 TIU/ml)."}, "A549 tumor [6]": {"system": "A549 tumor", "set-up": "species or system mice", "settings": "mouse, in vivo", "from_the_text": "The hypothesis that the “RD” motif was solely responsible for the tumor uptake was further tested by injecting ^111In-DOTA-GRD [SEQ ID NO:15] (120 μCi; 1 Ci=37 GBq) into A549 tumor-bearing mice."}, "[7]": {"settings": "Table 2, read-out: IC50 (αvβ3 integrin binding affinities)"}}, "note": "Entries after “also recorded” stand apart in the source; their conditions may differ. Like-named read-outs stand apart in the source and are kept apart here. Where a SMILES comes first, the peptide text is derived from it. Where no end group is shown, it is not given here. [ ]: non-standard residue; d: D form. The star is where a group is joined. Cypate = CC1(C)C(/C=C/C=C/C=C/C=C2/N(CCC(=O)*)c3ccc4ccccc4c3C2(C)C)=[N+](CCC(=O)O)c2ccc3ccccc3c21"}
{"compound": "CC1(C)C(/C=C/C=C/C=C/C=C2/N(CCC(=O)O)c3ccc4ccccc4c3C2(C)C)=[N+](CCC(=O)[O-])c2ccc3ccccc3c21", "note": "[Cypate, cypate, reference compound]", "values": [{"measurement": "^abεmax", "setting": "[1]", "value": "244,400 cm^−1Mol^−1"}, {"measurement": "^abλmax", "setting": "[1]", "value": 786, "unit": "nm"}, {"measurement": "^emλmax", "setting": "[1]", "value": 811, "unit": "nm"}, {"measurement": "internalization in A549 cells", "setting": "A549 cells [2]; 37° C.", "value": "did not internalize"}, {"measurement": "uptake / retention in A549 tumor", "setting": "A549 tumor [3]", "value": "not retained in the tumor; also recorded: None of the three non-ABI-specific probes were retained in the A549 tumor tissue"}, {"measurement": "time of clearance from blood by the liver", "setting": "A549 tumor [3]; after injection", "value": "≤ 4", "unit": "h"}]}
{"compound": "CC(C)[C@@H]1NC(=O)[C@@H](Cc2ccccc2)NC(=O)[C@H](CC(=O)O)NC(=O)CNC(=O)[C@H](CCCNC(=N)N)NC(=O)[C@H](CCCCNC(=O)CCN2/C(=C/C=C/C=C/C=C/C3=[N+](CCC(=O)O)c4ccc5ccccc5c4C3(C)C)C(C)(C)c3c2ccc2ccccc32)NC1=O", "note": "[Cyp-cyclo-RGD, Cypate-cyclo[RGDfVK^(Cypate)]] (cyclo(RGD[dF]VK(Cypate)))", "values": [{"measurement": "cytotoxicity (CyQuant), longer treatment", "setting": "A549 cells [4]", "value": "some cytotoxicity"}, {"measurement": "IC50", "setting": "[5]; [7]", "value": 79.5, "unit": "µM"}, {"measurement": "uptake / retention in A549 tumor", "setting": "A549 tumor [3]", "value": "preferentially localized"}, {"measurement": "accumulation / retention in nontarget tissues", "setting": "A549 tumor [3]; 24 h post injection", "value": "equally high"}, {"measurement": "retention in the tumor, cyclic versus linear Cyp-RGD", "setting": "A549 tumor [3]; 24 h post injection", "value": "higher by a factor of three"}]}
{"compound": "GRDSPK (listed as Homo sapiens) [GRD peptide]", "values": [{"measurement": "blocking of Cyp-GRD uptake in the tumor by co-injection", "setting": "A549 tumor [3]; equimolar, 0.3 μmol/kg body weight, 24 h post injection", "value": "unable to block"}]}
{"compound": "CC1(C)C(=CC=CC=CC=CC2=[N+](CCC(=O)O)c3ccc4ccccc4c3C2(C)C)N(CCC(=O)N[C@H]2CSSC[C@@H](C(N)=O)NC(=O)[C@H](CC(=O)O)NC(=O)CNC(=O)[C@H](CCCNC(=N)N)NC2=O)c2ccc3ccccc3c21", "note": "[Cypate-cyclo(CRGDC)-NH2] (HELM PEPTIDE1{[CC1(C)C(/C=C/C=C/C=C/C=C2/N(CCC(=O)[*:2])c3ccc4ccccc4c3C2(C)C)=[N+](CCC(=O)O)c2ccc3ccccc3c21].C.R.G.D.C.[am]}$PEPTIDE1,PEPTIDE1,2:R3-6:R3$$$V2.0)", "values": [{"measurement": "IC50", "setting": "[5]; [7]", "value": 4.6, "unit": "µM"}]}
{"compound": "Cypate-3-GRDSPK ({Cypate‑3}-GRDSPK; listed as Homo sapiens) [Cyp-3-GRD]", "values": [{"measurement": "^abεmax", "setting": "[1]", "value": "128,538 cm^−1Mol^−1"}, {"measurement": "^abλmax", "setting": "[1]", "value": 684, "unit": "nm"}, {"measurement": "^emλmax", "setting": "[1]", "value": 703, "unit": "nm"}, {"measurement": "internalization in A549 cells", "setting": "A549 cells [2]; 37° C.", "value": "internalized"}, {"measurement": "cellular localization at 4° C.", "setting": "A549 cells [2]; A549 cells incubated at 4° C.", "value": "remained in the peripheral region of the cell membrane"}, {"measurement": "translocation into the nucleus", "setting": "A549 cells [2]; A549 cells, 37° C.", "value": "did not translocate into the nucleus"}]}
{"compound": "CC(C)[C@H](NC(=O)[C@@H](NC(=O)[C@@H]1CSSC[C@H](NC(=O)[C@H](N)Cc2ccccc2)C(=O)N[C@@H](Cc2ccc(O)cc2)C(=O)N[C@H](Cc2c[nH]c3ccccc23)C(=O)N[C@@H](CCCCN)C(=O)N[C@@H]([C@@H](C)O)C(=O)N1)[C@@H](C)O)C(=O)N[C@@H](CCCNC(=N)N)C(=O)NCC(=O)N[C@@H](CC(=O)O)C(N)=O", "note": "[H-DPhe-Cyclo(Cys-Tyr-DTrp-Lys-Thr-Cys)-Thr-Val-Arg-Gly-Asp-NH2] (HELM PEPTIDE1{[dF].C.Y.[dW].K.T.C.T.V.R.G.D.[am]}$PEPTIDE1,PEPTIDE1,2:R3-7:R3$$$V2.0)", "values": [{"measurement": "IC50", "setting": "[5]; Table 3, read-out: IC50", "value": 0.722, "unit": "µM"}]}
{"compound": "CC1(C)C(/C=C/C=C/C=C/C=C2\\N(CCCCS(=O)(=O)O)c3ccc4ccccc4c3C2(C)C)=[N+](CCCCS(=O)(=O)[O-])c2ccc3ccccc3c21", "note": "[indocyanine green, reference compound]", "values": [{"measurement": "uptake / retention in A549 tumor", "setting": "A549 tumor [3]", "value": "None of the three non-ABI-specific probes were retained in the A549 tumor tissue"}]}
{"compound": "cytate [reference compound]", "values": [{"measurement": "uptake / retention in A549 tumor", "setting": "A549 tumor [3]", "value": "None of the three non-ABI-specific probes were retained in the A549 tumor tissue"}]}
{"compound": "N=C(N)NCCC[C@H](NC(=O)CNC(=O)CN1CCN(CC(=O)O)CCN(CC(=O)O)CCN(CC(=O)O)CC1)C(=O)N[C@@H](CC(=O)O)C(=O)N[C@@H](CO)C(=O)N1CCC[C@H]1C(=O)N[C@@H](CCCCN)C(=O)O", "note": "[^111In-DOTA-GRD, metal not drawn] (HELM PEPTIDE1{[O=C(O)CN1CCN(CC(=O)O)CCN(CC(=O)[*:2])CCN(CC(=O)O)CC1].G.R.D.S.P.K}$$$$V2.0)", "values": [{"measurement": "clearance (scintigraphy)", "setting": "A549 tumor [6]", "value": "rapid renal clearance"}, {"measurement": "localization of the material", "setting": "A549 tumor [6]", "value": "nearly all of the material localized in the bladder"}]}
{"compound": "CC(C)[C@@H]1NC(=O)[C@@H](Cc2ccccc2)NC(=O)[C@H](CC(=O)O)NC(=O)CNC(=O)[C@H](CCCNC(=N)N)NC(=O)[C@H](CCCCN)NC1=O", "note": "[Cyclo(DPhe-Val-Lys-Arg-Gly-Asp)-OH] (HELM PEPTIDE1{R.G.D.[dF].V.K}$PEPTIDE1,PEPTIDE1,1:R1-6:R2$$$V2.0)", "values": [{"measurement": "IC50", "setting": "[5]; Table 3, read-out: IC50", "value": 1.89, "unit": "µM"}]}
